Assays:
Type in all cases: functional
[1] = system: HeLa; assay: Cytotoxicity against human HeLa cells assessed as growth inhibition at 10 uM by SRB assay; conditions: read-out: GI
[2] = system: MCF7; assay: Cytotoxicity against human MCF7 cells assessed as growth inhibition at 50 uM by SRB assay; conditions: read-out: GI
[3] = Cytotoxicity against human IMR32 cells assessed as growth inhibition at 50 uM by SRB assay; conditions: IMR-32, read-out: GI
[4] = Cytotoxicity against human prostate cancer cells assessed as growth inhibition at 50 uM by SRB assay; conditions: Cancer cell lines, read-out: GI
[5] = Cytotoxicity against human prostate cancer cells assessed as growth inhibition at 10 uM by SRB assay; conditions: Cancer cell lines, read-out: GI
[6] = system: A549; assay: Cytotoxicity against human A549 cells assessed as growth inhibition at 50 uM by SRB assay; conditions: read-out: GI
[7] = system: A549; assay: Cytotoxicity against human A549 cells assessed as growth inhibition at 10 uM by SRB assay; conditions: read-out: GI
[8] = system: MCF7; assay: Cytotoxicity against human MCF7 cells assessed as growth inhibition at 10 uM by SRB assay; conditions: read-out: GI
[9] = Cytotoxicity against human IMR32 cells assessed as growth inhibition at 10 uM by SRB assay; conditions: IMR-32, read-out: GI
[10] = system: HeLa; assay: Cytotoxicity against human HeLa cells assessed as growth inhibition at 50 uM by SRB assay; conditions: read-out: GI

Compound | inhibition of growth at 10 µM [1] | inhibition of growth at 50 µM [2] | inhibition of growth at 50 µM [3] | inhibition of growth at 50 µM [4] | inhibition of growth at 10 µM [5] | inhibition of growth at 50 µM [6] | inhibition of growth at 10 µM [7] | inhibition of growth at 10 µM [8] | inhibition of growth at 10 µM [9] | inhibition of growth at 50 µM [10]
C[C@@H]1CC[C@H]2[C@@H](C)C(OCCC#Cc3ccc(C#CCCOC4O[C@@H]5O[C@@]6(C)CC[C@H]7[C@H](C)CC[C@@H]([C@H]4C)[C@@]57OO6)s3)O[C@@H]3O[C@@]4(C)CC[C@@H]1[C@]32OO4 (stereo partly specified) | 51% | 41% | 28% | 53% | 49% | 78% | 77% | 31% | 26% | 52%
C[C@@H]1CC[C@H]2[C@@H](C)C(OCCC#Cc3cccc(C#CCCOC4O[C@@H]5O[C@@]6(C)CC[C@H]7[C@H](C)CC[C@@H]([C@H]4C)[C@@]57OO6)c3)O[C@@H]3O[C@@]4(C)CC[C@@H]1[C@]32OO4 (stereo partly specified) | – | – | 30% | 60% | 45% | 65% | 60% | – | 10% | –
C[C@@H]1CC[C@H]2[C@@H](C)C(OCC#Cc3ccc(C#CCOC4O[C@@H]5O[C@@]6(C)CC[C@H]7[C@H](C)CC[C@@H]([C@H]4C)[C@@]57OO6)cc3)O[C@@H]3O[C@@]4(C)CC[C@@H]1[C@]32OO4 (stereo partly specified) | 34% | 45% | 56% | 68% | 56% | 69% | 67% | 36% | 50% | 43%
C[C@@H]1CC[C@H]2[C@@H](C)C(OCC#Cc3ccc(-c4ccc(C#CCOC5O[C@@H]6O[C@@]7(C)CC[C@H]8[C@H](C)CC[C@@H]([C@H]5C)[C@@]68OO7)cc4)cc3)O[C@@H]3O[C@@]4(C)CC[C@@H]1[C@]32OO4 (stereo partly specified) | 47% | 32% | 43% | 68% | 46% | 69% | 64% | 30% | 34% | 57%
C[C@@H]1CC[C@H]2[C@@H](C)C(OCC#Cc3ccc(C#CCOC4O[C@@H]5O[C@@]6(C)CC[C@H]7[C@H](C)CC[C@@H]([C@H]4C)[C@@]57OO6)s3)O[C@@H]3O[C@@]4(C)CC[C@@H]1[C@]32OO4 (stereo partly specified) | 35% | 29% | 83% | 47% | 44% | 73% | 70% | 25% | 54% | 37%
C[C@@H]1CC[C@H]2[C@@H](C)C(OCC#Cc3cccc(C#CCOC4O[C@@H]5O[C@@]6(C)CC[C@H]7[C@H](C)CC[C@@H]([C@H]4C)[C@@]57OO6)c3)O[C@@H]3O[C@@]4(C)CC[C@@H]1[C@]32OO4 (stereo partly specified) | – | – | 45% | 65% | 50% | 70% | 65% | – | 40% | –
C[C@@H]1CC[C@H]2[C@@H](C)C(OCCC#Cc3ccc(C#CCCOC4O[C@@H]5O[C@@]6(C)CC[C@H]7[C@H](C)CC[C@@H]([C@H]4C)[C@@]57OO6)cc3)O[C@@H]3O[C@@]4(C)CC[C@@H]1[C@]32OO4 (stereo partly specified) | 20% | 41% | 37% | 55% | 48% | 72% | 56% | 26% | 11% | 24%
C[C@@H]1CC[C@H]2[C@@H](C)C(OCCC#Cc3ccc(-c4ccc(C#CCCOC5O[C@@H]6O[C@@]7(C)CC[C@H]8[C@H](C)CC[C@@H]([C@H]5C)[C@@]68OO7)cc4)cc3)O[C@@H]3O[C@@]4(C)CC[C@@H]1[C@]32OO4 (stereo partly specified) | 18% | 38% | 27% | 47% | 41% | 74% | 67% | 24% | 4% | 50%
C[C@@H]1CC[C@H]2[C@@H](C)C(=O)O[C@@H]3O[C@@]4(C)CC[C@@H]1[C@]32OO4 [ARTEMISININ] | 51% | 36% | 34% | 40% | 35% | 38% | 26% | 25% | 24% | 66%
COc1cccc2c1C(=O)c1c(O)c3c(c(O)c1C2=O)C[C@@](O)(C(=O)CO)C[C@@H]3O[C@H]1C[C@H](N)[C@H](O)[C@H](C)O1 [DOXORUBICIN] | – | – | – | – | – | – | – | – | 69% | –
O=c1[nH]cc(F)c(=O)[nH]1 [FLUOROURACIL] | 62% | – | – | – | – | – | – | – | – | –
CO[C@@]12[C@H](COC(N)=O)C3=C(C(=O)C(C)=C(N)C3=O)N1C[C@@H]1N[C@@H]12 [MITOMYCIN] | – | – | – | – | 65% | – | – | – | – | –
CC(=O)O[C@H]1C(=O)[C@@]2(C)[C@H]([C@H](OC(=O)c3ccccc3)[C@]3(O)C[C@H](OC(=O)[C@H](O)[C@@H](NC(=O)c4ccccc4)c4ccccc4)C(C)=C1C3(C)C)[C@]1(OC(C)=O)CO[C@@H]1C[C@@H]2O [PACLITAXEL] | – | – | – | – | – | – | 56% | – | – | –

Source: ChEMBL document CHEMBL3098009, “Synthesis of a novel series of artemisinin dimers with potent anticancer activity involving Sonogashira cross-coupling reaction” (2014)
